Laboratory results from patent US7605175B2, “Inhibitors of cyclin-dependent kinases, compositions and uses related thereto” (GPC Biotech AG, priority 2001, dated 2009).
pIC50: −log10 of the molar value.

Columns and labels:
Settings in all cases: Table 6
Cdk2/cyclin E = target: T1, Cdk2/cyclin E (Homo sapiens, UniProt P24941); assay: Biochemical kinase assay Cdk2/cyclin E
T1 construct: made in house; host or cells: Sf9 insect cells
From the text: (§1) Enzymes: Cdc2/cyclin B was obtained from commercial sources. Cdk2/his-cyclin Eshort was expressed in Sf9 cells. Cdk2/cyclin A, cdk4/cyclin D1, and cdk6/cyclin D2 were expressed in Sf9 cells. Protein kinase A (catalytic subunit, from bovine heart) and protein kinase C (mixed isozymes from rat brain) were obtained from commercial sources.
(§2) Substrates: Histone H1 was from commercial sources. GST-Rb is glutathione-S-trans-ferase fused to the N-terminal of residues 379-928 of the Rb protein.
(§3) Cdk2/cyclin E, Cdk2/cyclin A, Cdk4/cyclin D1, and Cdk6/cyclin D2 activity was determined using a glutathione-sepharose capture assay. The enzymes were expressed in Sf9 insect cells as heterodimers, and the substrate (GST-Rb) was glutathione-S-transferase fused to residues 379 to 928 of Rb retinoblastoma protein, expressed in E. coli. The assay solution contained 50 mM Tris.HCl, 10 mM MgCl2, 1 mM dithiothreitol, 50 μM adenosine triphosphate, 2 μCi [γ-^33P]adenosine triphosphate, 10% dimethylsulfoxide (from compounds), pH 7.5, 40 μg GST-Rb, and enzyme in a 100 μL volume. Compounds were added at various concentrations between 1 nM and 10 μM. The reaction was allowed to proceed for 15 min at 30° C. and was stopped by the addition of 70 μL of stop solution (237 mM disodium ethylene-diamine tetraacetate, 105 mM adenosine triphosphate, pH 8.0). The GST-Rb was captured by binding to glutathione-sepharose bead (Amersham) for 110 min, and the suspension was filtered through a glass fiber filter. After washing the retained beads five time with phosphate-buffered saline containing 0.3% (w/v) Tween-20, the amount of ^33P incorporated was determined by scintillation counting after adding 100 μL scintillant. Relative activity was determined by dividing the amount of radioactivity incorporated in the presence of compound by the amount of radioactivity incorporated in a control experiment containing DMSO alone but no compound. The background radioactivity, determined in an experiment containing 50 mM disodium ethylenediamine tetraacetate in place of compound, was subtracted from all results before calculations.

Cdc2/cyclin B = target: T2, Cdc2/cyclin B (Homo sapiens, UniProt P06493); assay: Biochemical kinase assay Cdc2/cyclin B
T2 construct: purchased
T2 sequence (P06493 whole entry, species assumed): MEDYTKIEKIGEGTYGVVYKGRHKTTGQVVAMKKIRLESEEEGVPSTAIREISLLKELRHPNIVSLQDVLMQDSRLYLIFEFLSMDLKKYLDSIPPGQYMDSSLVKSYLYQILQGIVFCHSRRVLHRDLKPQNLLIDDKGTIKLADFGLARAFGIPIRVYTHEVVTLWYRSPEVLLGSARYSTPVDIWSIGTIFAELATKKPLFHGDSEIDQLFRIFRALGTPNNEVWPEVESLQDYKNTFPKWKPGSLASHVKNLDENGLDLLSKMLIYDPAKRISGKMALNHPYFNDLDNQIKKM
T2 sequence (P14635 whole entry partner, species assumed): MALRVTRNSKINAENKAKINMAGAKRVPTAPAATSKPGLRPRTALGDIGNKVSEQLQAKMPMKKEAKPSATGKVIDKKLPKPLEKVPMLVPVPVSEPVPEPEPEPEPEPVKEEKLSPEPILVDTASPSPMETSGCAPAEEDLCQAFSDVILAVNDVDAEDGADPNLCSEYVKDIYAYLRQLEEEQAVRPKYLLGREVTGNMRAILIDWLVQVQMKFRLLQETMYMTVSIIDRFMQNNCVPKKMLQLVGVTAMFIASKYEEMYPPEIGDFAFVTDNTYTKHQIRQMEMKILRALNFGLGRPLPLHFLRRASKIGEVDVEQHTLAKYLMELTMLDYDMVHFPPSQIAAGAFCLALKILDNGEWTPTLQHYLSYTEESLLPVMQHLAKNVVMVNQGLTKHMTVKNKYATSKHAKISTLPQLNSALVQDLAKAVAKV
From the text: as §1, §2
Assays: Cdc2/cyclinB activity was determined by measuring incorporation of radio-activity from adenosine [γ-^32P]triphosphate into Histone H1 using a TCA precipitation assay. Cdc2/cyclin B kinase and Histone H1 were obtained from commercial sources. The final assay solution contained 50 mM Tris.HCl, 10 mM MgCl2, 1 mM dithiothreitol, 50 μM adenosine triphosphate, 2 μCi ^32P, 10% dimethylsulfoxide (from compounds), pH 7.5, 20 μg Histone H1, 6 U enzyme in a 50 μL volume. Compounds were added at various concentrations between 1 nM and 10 μM. The reaction was started with the addition of enzyme, allowed to proceed for 20 min at 30° C., and stopped by the addition of 20 μL of stop solution (237 mM disodium ethylenediamine tetraacetate, 105 mM adenosine triphosphate, pH 8.0). The protein was precipitated by the addition of 35 μL 70% (w/v) trichloroacetic acid, and the precipitate was captured on a 96-well glass fiber filter plate (Millipore, Inc.), which had been wet with 25% (w/v) trichloroacetic acid. The filter was washed ten times with 25% (w/v) trichloroacetic acid, and the amount of incorporated ^32P was determined by scintillation counting after adding 100 μL scintillant (Microscint 20, Packard Instruments). Relative activity was determined by dividing the amount of radioactivity incorporated in the presence of compound by the amount of radioactivity incorporated in a control experiment containing DMSO alone but no compound. The background radioactivity, determined in an experiment containing 50 mM EDTA in place of compound, was subtracted from all results before calculations.

Cdk4/cyclin D1 = target: T3, Cdk4/cyclin D1 (Homo sapiens, UniProt P11802); assay: Biochemical kinase assay Cdk4/cyclin D1
T3 construct: made in house; host or cells: Sf9 insect cells
T3 sequence (P11802 whole entry, species assumed): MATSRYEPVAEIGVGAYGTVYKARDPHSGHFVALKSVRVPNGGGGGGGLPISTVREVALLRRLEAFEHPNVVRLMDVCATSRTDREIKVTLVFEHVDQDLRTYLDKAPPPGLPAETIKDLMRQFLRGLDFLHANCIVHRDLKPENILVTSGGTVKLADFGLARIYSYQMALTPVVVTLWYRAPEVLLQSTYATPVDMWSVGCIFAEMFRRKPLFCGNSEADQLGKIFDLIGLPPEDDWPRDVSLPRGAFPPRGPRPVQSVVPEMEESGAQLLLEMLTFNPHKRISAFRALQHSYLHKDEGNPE
T3 sequence (P24385 whole entry partner, species assumed): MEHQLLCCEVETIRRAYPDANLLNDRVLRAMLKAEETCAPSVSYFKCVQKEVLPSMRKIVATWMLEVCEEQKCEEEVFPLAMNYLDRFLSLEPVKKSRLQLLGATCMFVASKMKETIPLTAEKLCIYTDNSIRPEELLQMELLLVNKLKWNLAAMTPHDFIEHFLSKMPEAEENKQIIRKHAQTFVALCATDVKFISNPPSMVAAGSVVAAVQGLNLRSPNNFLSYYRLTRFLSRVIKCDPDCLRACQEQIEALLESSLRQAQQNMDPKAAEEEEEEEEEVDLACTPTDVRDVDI
From the text: as §1, §2, §3

Row | pIC50 (Cdk2/cyclin E) | pIC50 (Cdc2/cyclin B) | pIC50 (Cdk4/cyclin D1) | Structure (SMILES)
1 | – | > 7.00 | – | O=C(Nc1cccc2c1C(=O)c1c(-c3ccc(CNCc4ccccn4)cc3)n[nH]c1-2)NN1CCOCC1 [Compound B13]
2 | – | > 7.00 | – | CCOC(=O)C1CCN(Cc2ccc(-c3n[nH]c4c3C(=O)c3c(NC(=O)NN5CCOCC5)cccc3-4)cc2)CC1 [Compound B9]
3 | > 7.00 | > 8.00 | – | O=C(Nc1cccc2c1C(=O)c1c(-c3ccc(CN4CCN(CCO)CC4)cc3)n[nH]c1-2)NN1CCOCC1 [Compound B3]
4 | > 7.00 | – | – | O=C(Nc1cccc2c1C(=O)c1c(-c3ccc(CN4CCC(O)CC4)cc3)n[nH]c1-2)NN1CCOCC1 [Compound B5]
5 | – | > 7.00 | – | O=C(Nc1cccc2c1C(=O)c1c(-c3ccc(CNCc4cccnc4)cc3)n[nH]c1-2)NN1CCOCC1 [Compound B12]
6 | > 7.00 | – | – | O=C(Nc1cccc2c1C(=O)c1c(-c3ccc(CN4CCC[C@H]4CO)cc3)n[nH]c1-2)NN1CCOCC1 [Compound B6]
7 | – | > 7.00 | – | O=C(Nc1cccc2c1C(=O)c1c(-c3ccc(CNCC(O)CO)cc3)n[nH]c1-2)NN1CCOCC1 (stereo not shown) [Compound B11]
8 | – | > 7.00 | – | O=C(Nc1cccc2c1C(=O)c1c(-c3ccc(CN4CC[C@@H](O)C4)cc3)n[nH]c1-2)NN1CCOCC1 [Compound B8]
9 | > 7.00 | – | – | O=C(Nc1cccc2c1C(=O)c1c(-c3ccc(CNCCOCCO)cc3)n[nH]c1-2)NN1CCOCC1 [Compound B4]
10 | > 7.00 | – | – | O=C(Nc1cccc2c1C(=O)c1c(-c3ccc(CN4CCN(c5cccc(C(F)(F)F)c5)CC4)cc3)n[nH]c1-2)NN1CCOCC1 [Compound B7]
11 | > 8.00 | – | – | O=C(Nc1cccc2c1C(=O)c1c(-c3ccc(CNC(CO)CO)cc3)n[nH]c1-2)NN1CCOCC1 [Compound B1]
12 | > 7.00 | > 8.00 | – | O=C(Nc1cccc2c1C(=O)c1c(-c3ccc(CN(CCO)CCO)cc3)n[nH]c1-2)NN1CCOCC1 [Compound B2]
13 | – | > 7.00 | – | O=C(Nc1cccc2c1C(=O)c1c(-c3ccc(CNCCO)cc3)n[nH]c1-2)NN1CCOCC1 [Compound B10]

The next lines start with the molecule.

Row | Structure (SMILES) | pIC50 (Cdk2/cyclin E) | pIC50 (Cdc2/cyclin B) | pIC50 (Cdk4/cyclin D1)
14 | O=C(Nc1cccc2c1C(=O)c1c(-c3ccc(CN4CCN(c5ccccn5)CC4)cc3)n[nH]c1-2)NN1CCOCC1 [Compound A82] | > 7.00 | – | –
15 | Cc1cc(-c2[nH]nc3c2C(=O)c2c(NC(=O)NN4CCOCC4)cccc2-3)ccc1OCCN1CCN(C(C)C)CC1 [Compound A24] | > 8.00 | > 8.00 | > 7.00
16 | Cc1cc(-c2[nH]nc3c2C(=O)c2c(NC(=O)NN4CCOCC4)cccc2-3)ccc1OCCN1CCCC1 [Compound A25] | > 7.00 | > 7.00 | > 7.00
17 | O=C(Nc1cccc2c1C(=O)c1c-2n[nH]c1-c1ccc(S(=O)(=O)N2CCNCC2)cc1)NN1CCOCC1 [Compound A56] | > 7.00 | > 7.00 | > 6.00
18 | Cc1noc(COc2ccc(-c3[nH]nc4c3C(=O)c3c(NC(=O)NN5CCN(C)CC5)cccc3-4)cc2)n1 [Compound A45] | > 7.00 | > 8.00 | > 7.00
19 | O=C(Nc1cccc2c1C(=O)c1c-2n[nH]c1-c1ccc(OCCN2CCOCC2)cc1)NN1CCOCC1 [Compound A3] | > 7.00 | > 7.00 | > 7.00
20 | CC(C)C(N)C(=O)OCCN1CCN(NC(=O)Nc2cccc3c2C(=O)c2c-3n[nH]c2-c2ccc(OCCN3CCCC3)cc2)CC1 (stereo not shown) [Compound A33] | > 7.00 | > 7.00 | > 7.00
21 | CC(C)N1CCN(CCOc2ccc(-c3n[nH]c4c3C(=O)c3c(NC(=O)NN5CCOCC5)cccc3-4)c(F)c2)CC1 [Compound A16] | > 7.00 | > 7.00 | > 6.00
22 | CC(C)c1nn(-c2c(Cl)cc(Cl)cc2Cl)c2nc(Cc3ccc(NS(=O)(=O)CCCN4CCCC4)cc3)[nH]c(=O)c12 [Compound A38] | > 7.00 | > 6.00 | > 6.00
23 | CC(C)N1CCN(S(=O)(=O)c2ccc(-c3[nH]nc4c3C(=O)c3c(NC(=O)NN5CCOCC5)cccc3-4)cc2)CC1 [Compound A57] | > 8.00 | > 8.00 | > 7.00
24 | O=C(Nc1cccc2c1C(=O)c1c(-c3ccc(OCc4nnn[nH]4)cc3)n[nH]c1-2)NN1CCOCC1 [Compound A74] | > 7.00 | > 7.00 | –
25 | O=C(Nc1cccc2c1C(=O)c1c(-c3ccc(OCCN4CCOCC4)c(F)c3)n[nH]c1-2)NN1CCOCC1 [Compound A27] | > 7.00 | > 8.00 | > 7.00
26 | Cc1nc(Cc2nc3c(c(C(C)C)nn3-c3c(Cl)cccc3Cl)c(=O)[nH]2)cs1 [Compound A58] | > 8.00 | > 5.00 | > 5.00
27 | CN(C)C(=O)COc1ccc(-c2[nH]nc3c2C(=O)c2c(NC(=O)NN4CCOCC4)cccc2-3)cc1 [Compound A34] | > 8.00 | > 7.00 | > 7.00
28 | CC(C)c1nn(-c2c(Cl)cccc2Cl)c2nc(Cc3ccc(OCCO)cc3)[nH]c(=O)c12 [Compound A59] | > 7.00 | > 7.00 | > 6.00
29 | CC(C)N1CCN(CCCOc2ccc(-c3[nH]nc4c3C(=O)c3c(NC(=O)NN5CCOCC5)cccc3-4)cc2)CC1 [Compound A20] | > 8.00 | > 8.00 | > 7.00
30 | O=C(Nc1cccc2c1C(=O)c1c-2n[nH]c1-c1ccc(O)c(CN2CCOCC2)c1)NN1CCOCC1 [Compound A10] | > 7.00 | > 8.00 | > 6.00
31 | Cc1cc(OCCN2CCCC2)ccc1-c1[nH]nc2c1C(=O)c1c(NC(=O)NN3CCOCC3)cccc1-2 [Compound A29] | > 8.00 | > 7.00 | > 7.00
32 | CN1CCN(NC(=O)Nc2cccc3c2C(=O)c2c-3n[nH]c2-c2ccc(OCC(=O)N3CCCC3)cc2)CC1 [Compound A44] | > 7.00 | > 8.00 | > 7.00
33 | O=C(Nc1cccc2c1C(=O)c1c-2n[nH]c1-c1ccc(OCC(=O)N2CCOCC2)cc1)NN1CCOCC1 [Compound A36] | > 7.00 | > 7.00 | > 7.00
34 | CC(C)c1nn(-c2c(Cl)cc(Cl)cc2Cl)c2nc(Cc3ccc(NS(=O)(=O)CCCN4CCN(C(C)C)CC4)cc3)[nH]c(=O)c12 [Compound A39] | > 7.00 | > 6.00 | > 6.00
35 | O=C(O)COc1ccc(-c2n[nH]c3c2C(=O)c2c(NC(=O)NN4CCOCC4)cccc2-3)cc1 [Compound A68] | > 8.00 | > 7.00 | > 7.00
36 | Cc1cc(OCCn2cccn2)ccc1-c1[nH]nc2c1C(=O)c1c(NC(=O)NN3CCN(C)CC3)cccc1-2 [Compound A11] | > 7.00 | > 7.00 | > 7.00
37 | CC(C)N1CCN(NC(=O)Nc2cccc3c2C(=O)c2c-3n[nH]c2-c2ccc(OCCN3CCCC3)cc2)CC1 [Compound A23] | > 8.00 | > 7.00 | > 7.00
38 | O=C(Nc1cccc2c1C(=O)c1c(-c3ccc(CN4CCOCC4)cc3)n[nH]c1-2)NN1CCOCC1 [Compound A47] | > 7.00 | > 7.00 | –
39 | O=C(Nc1cccc2c1C(=O)c1c(-c3ccc(CN4CCCC4)cc3)n[nH]c1-2)NN1CCOCC1 [Compound A51] | > 7.00 | – | –
40 | COc1ccc(Cc2nc3c(c(C(C)C)nn3-c3c(Cl)cccc3Cl)c(=O)[nH]2)cc1 [Compound A67] | > 8.00 | > 7.00 | –
41 | CN1CCN(Cc2ccc(-c3n[nH]c4c3C(=O)c3c(NC(=O)NN5CCOCC5)cccc3-4)cc2)CC1 [Compound A49] | > 7.00 | > 7.00 | –
